Measurements as given in patent US20240294522A1 (Lead Discovery Center GmbH, priority 2021, published 2024).

Key:
GRK5 = target: T1, GRK5 (Homo sapiens, UniProt P34947); experiment: Lance Kinase Activity Assay, GRK5; details: biochemical Lance kinase activity assay; class symbols A-F; read-out: GRK5 LANCE Assay (IC-50)
T1 construct: purchased Thermo Scientific
Procedure, shortened: (§1)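 IC50s from sigmoidal dose-response over 0.0025-10 μM compound, with phosphorylated ULight substrate detected by Eu anti-phospho antibody FRET after EDTA quench.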

GRK2 = target: T2, GRK2 (Homo sapiens, UniProt P25098); experiment: Lance Kinase Activity Assay, GRK2; details: biochemical Lance kinase activity assay; class symbols A-F; read-out: GRK2 LANCE Assay (IC-50)
T2 construct: purchased Thermo Scientific
T2 sequence (P25098 1-689): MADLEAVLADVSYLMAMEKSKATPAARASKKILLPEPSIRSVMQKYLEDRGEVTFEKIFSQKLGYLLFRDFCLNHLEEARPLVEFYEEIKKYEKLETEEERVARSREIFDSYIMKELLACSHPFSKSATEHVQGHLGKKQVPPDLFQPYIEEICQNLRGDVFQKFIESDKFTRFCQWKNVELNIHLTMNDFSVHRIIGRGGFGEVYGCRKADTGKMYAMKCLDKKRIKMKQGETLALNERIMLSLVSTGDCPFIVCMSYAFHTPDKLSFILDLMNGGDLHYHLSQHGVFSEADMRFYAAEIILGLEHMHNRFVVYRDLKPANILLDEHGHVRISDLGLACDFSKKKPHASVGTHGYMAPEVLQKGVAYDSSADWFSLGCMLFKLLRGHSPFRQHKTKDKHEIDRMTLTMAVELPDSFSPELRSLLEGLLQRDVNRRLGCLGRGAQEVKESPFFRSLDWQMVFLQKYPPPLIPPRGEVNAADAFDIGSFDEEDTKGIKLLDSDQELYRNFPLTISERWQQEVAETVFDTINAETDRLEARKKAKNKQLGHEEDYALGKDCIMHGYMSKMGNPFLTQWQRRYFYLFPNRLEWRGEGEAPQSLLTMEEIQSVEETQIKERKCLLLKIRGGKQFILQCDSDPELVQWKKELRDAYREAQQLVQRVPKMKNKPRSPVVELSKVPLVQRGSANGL
Procedure, shortened: as §1

[1] = test system: neonatal rat ventricular cardiac myocytes (NRVCMs); experiment: In vitro cardiomyocyte hypertrophy assay; assay type: cell-based, Wistar rats; details: inhibition of cellular hypertrophy, NRVCMs stimulated with phenylephrine 20 μM and leukemia inhibitory factor 50 ng/ml, 96 h, read-out: Hypertrophy Assay (IC-50)
Experimental: 5-6 days old Wistar rats were sacrificed by decapitation and neonatal rat ventricular cardiac myocytes (NRVCMs) were prepared using the Neonatal heart dissociation kit (Miltenyi Biotec) according to the manufacturer's instructions. The cardiac single cell suspension was resuspended in DMEM low glucose medium supplemented with 2% fetal bovine serum (FBS) and 50 μg/ml penicillin/streptomycin. 1500 cells/well were seeded on 0.1% gelatin-coated 384-well plates and incubated in medium at 37° C. and 5% CO2 for 24 h prior to the addition of test compounds to the cells at titrated concentrations. Cellular hypertrophy was then stimulated by adding phenylephrine and leukemia inhibitory factor at final concentrations of 20 μM and 50 ng/ml, respectively, and the cells were incubated for another 96 h. For immunocytochemistry, cells were fixed with 4% formaldehyde on day 5 of compound treatment and cardiomyocytes were stained with antibodies against a-actinin while cell nuclei were stained with DAPI. Image acquisition and phenotypic analysis was performed using an Image-Xpress Micro XL automated microscope (Molecular Devices).
Inhibition of cellular hypertrophy is indicated as IC50 [nM]. Compounds having an activity designated as “A” provided an IC50≤500 nM; compounds having an activity designated as “B” provided an 500 nM<IC50≤1000 nM; compounds having an activity designated as “C” provided an IC50>1000 nM.

T1 sequence (P34947 whole entry): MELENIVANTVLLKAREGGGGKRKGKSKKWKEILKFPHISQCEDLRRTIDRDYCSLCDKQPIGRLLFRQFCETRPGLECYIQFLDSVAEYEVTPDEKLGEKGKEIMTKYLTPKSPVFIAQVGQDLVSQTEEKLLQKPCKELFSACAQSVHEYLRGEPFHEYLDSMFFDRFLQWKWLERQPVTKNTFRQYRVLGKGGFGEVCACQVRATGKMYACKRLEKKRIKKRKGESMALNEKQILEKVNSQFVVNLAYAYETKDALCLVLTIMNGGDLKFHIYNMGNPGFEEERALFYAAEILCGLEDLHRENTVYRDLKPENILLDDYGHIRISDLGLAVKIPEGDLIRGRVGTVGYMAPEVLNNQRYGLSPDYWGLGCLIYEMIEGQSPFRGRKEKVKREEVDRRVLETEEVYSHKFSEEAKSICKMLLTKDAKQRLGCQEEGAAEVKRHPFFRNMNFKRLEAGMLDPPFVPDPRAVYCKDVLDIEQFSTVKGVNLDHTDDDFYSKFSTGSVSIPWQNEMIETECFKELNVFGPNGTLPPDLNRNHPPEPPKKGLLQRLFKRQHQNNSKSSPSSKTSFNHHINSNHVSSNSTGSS

Row | IC50 (GRK5) [µM] | IC50 (GRK2) [µM] | SMILES | IC50 [1] [µM]
1 | ≤ 0.05 | 1 to 10 | COc1ccc([C@@H](C)NC(=O)/C(C#N)=C/c2c[nH]c3ncc(-c4ccc(CN(C)C)cc4)cc23)cc1OC [Example 117, (R,E)-2-cyano-N-(1-(3,4-dimethoxyphenyl)ethyl)-3-(5-(4-((dimethylamino)methyl)phenyl)-1H-pyrrolo[2,3-b]pyridin-3-yl)acrylamide] | 0.5 to 1
2 | ≤ 0.05 | 1 to 10 | COc1ccc([C@@H](C)NC(=O)/C(C#N)=C/c2c[nH]c3ncc(OCCN(C)C)cc23)cc1OC [Example 104, (R,E)-2-cyano-N-(1-(3,4-dimethoxyphenyl)ethyl)-3-(5-(2-(dimethylamino)ethoxy)-1H-pyrrolo[2,3-b]pyridin-3-yl)acrylamide] | > 1
3 | ≤ 0.05 | 0.5 to 1 | COc1ccc([C@@H](C)NC(=O)/C=C/c2c[nH]c3ncc(-c4ccc(N5CCN(C)CC5)cc4)cc23)cc1OC [Example 113, (R,E)-N-(1-(3,4-dimethoxyphenyl)ethyl)-3-(5-(4-(4-methylpiperazin-1-yl)phenyl)-1H-pyrrolo[2,3-b]pyridin-3-yl)acrylamide] | ≤ 0.5
4 | ≤ 0.05 | 1 to 10 | COc1ccc([C@@H](C)NC(=O)/C=C/c2c[nH]c3ncc(-c4cnn(CCN(C)C)c4)cc23)cc1OC [Example 213, (R,E)-N-(1-(3,4-dimethoxyphenyl)ethyl)-3-(5-(1-(2-(dimethylamino)ethyl)-1H-pyrazol-4-yl)-1H-pyrrolo[2,3-b]pyridin-3-yl)acrylamide] | > 1
5 | ≤ 0.05 | 1 to 10 | COc1ccc([C@@H](C)NC(=O)/C(C#N)=C/c2c[nH]c3ncc(-c4ccc(F)c(S(C)(=O)=O)c4)cc23)cc1OC [Example 169] | 0.5 to 1
6 | ≤ 0.05 | 1 to 10 | COc1ccc([C@@H](C)NC(=O)/C=C/c2c[nH]c3ncc(-c4cnn5ccccc45)cc23)cc1OC [Example 205, (R,E)-N-(1-(3,4-dimethoxyphenyl)ethyl)-3-(5-(pyrazolo[1,5-a]pyridin-3-yl)-1H-pyrrolo[2,3-b]pyridin-3-yl)acrylamide] | 0.5 to 1
7 | ≤ 0.05 | 1 to 10 | COc1ccc([C@@H](CO)NC(=O)/C(C#N)=C/c2c[nH]c3ncc(-c4cnn(C)c4)cc23)cc1OC [Example 92, (S,E)-2-cyano-N-(1-(3,4-dimethoxyphenyl)-2-hydroxyethyl)-3-(5-(1-methyl-1H-pyrazol-4-yl)-1H-pyrrolo[2,3-b]pyridin-3-yl)acrylamide] | > 1
8 | ≤ 0.05 | 0.5 to 1 | C[C@@H](NC(=O)/C(C#N)=C/c1c[nH]c2ncc(-c3cnn(C)c3)cc12)c1ccc2c(c1)OCO2 [Example 252, (R,E)-N-(1-(benzo[d][1,3]dioxol-5-yl)ethyl)-2-cyano-3-(5-(1-methyl-1H-pyrazol-4-yl)-1H-pyrrolo[2,3-b]pyridin-3-yl)acrylamide] | ≤ 0.5
9 | ≤ 0.05 | 0.05 to 0.1 | COc1cc([C@@H](C)NC(=O)/C(C#N)=C/c2c[nH]c3ncc(-c4cnn(C)c4)cc23)ccc1F [Example 94, (R,E)-2-cyano-N-(1-(4-fluoro-3-methoxyphenyl)ethyl)-3-(5-(1-methyl-1H-pyrazol-4-yl)-1H-pyrrolo[2,3-b]pyridin-3-yl)acrylamide] | ≤ 0.5
10 | ≤ 0.05 | 1 to 10 | COc1ccc([C@@H](C)NC(=O)/C=C/c2c[nH]c3ncc(-c4ccc(S(C)(=O)=O)cc4)cc23)cc1OC [Example 219, (R,E)-N-(1-(3,4-dimethoxyphenyl)ethyl)-3-(5-(4-(methylsulfonyl)phenyl)-1H-pyrrolo[2,3-b]pyridin-3-yl)acrylamide] | > 1
11 | ≤ 0.05 | 1 to 10 | COc1ccc([C@@H](C)NC(=O)/C(C#N)=C/c2c[nH]c3ncc(-c4cnn(C5CCNCC5)c4)cc23)cc1OC [Example 89, (R,E)-2-cyano-N-(1-(3,4-dimethoxyphenyl)ethyl)-3-(5-(1-(piperidin-4-yl)-1H-pyrazol-4-yl)-1H-pyrrolo[2,3-b]pyridin-3-yl)acrylamide] | > 1
12 | ≤ 0.05 | > 10 | COc1ccc([C@@H](C)NC(=O)/C=C/c2c[nH]c3ncc(-c4cccc(SC)c4)cc23)cc1OC [Example 254, (R,E)-N-(1-(3,4-dimethoxyphenyl)ethyl)-3-(5-(3-(methylthio)phenyl)-1H-pyrrolo[2,3-b]pyridin-3-yl)acrylamide] | > 1
13 | 0.5 to 1 | 1 to 10 | N#C/C(=C\c1c[nH]c2ncccc12)C(=O)NCc1cccc(C#N)c1 [Example 31, (E)-2-cyano-N-(3-cyanobenzyl)-3-(1H-pyrrolo[2,3-b]pyridin-3-yl)acrylamide] | –
14 | 0.1 to 0.5 | > 10 | COc1ccc([C@@H](C)NC(=O)/C(C#N)=C/c2c[nH]c3ncc(C4=CCCCC4)cc23)cc1OC [Example 156, (R,E)-2-cyano-3-(5-(cyclohex-1-en-1-yl)-1H-pyrrolo[2,3-b]pyridin-3-yl)-N-(1-(3,4-dimethoxyphenyl)ethyl)acrylamide] | –
15 | ≤ 0.05 | 1 to 10 | COc1ccc([C@@H](C)NC(=O)/C(C#N)=C/c2c[nH]c3nccc(-c4ccc(CN5CCN(C)CC5)cc4)c23)cc1OC [Example 173, (R,E)-2-cyano-N-(1-(3,4-dimethoxyphenyl)ethyl)-3-(4-(4-((4-methylpiperazin-1-yl)methyl)phenyl)-1H-pyrrolo[2,3-b]pyridin-3-yl)acrylamide] | –
